According to ChEMBL document CHEMBL1128320 (J Med Chem, 1995):
pIC50: −log10 of the molar value.

Columns and labels:
[1] = target: T1, Steroid 17-alpha-hydroxylase/17,20 lyase (Homo sapiens, UniProt P05093)
T1 sequence (P05093 whole entry): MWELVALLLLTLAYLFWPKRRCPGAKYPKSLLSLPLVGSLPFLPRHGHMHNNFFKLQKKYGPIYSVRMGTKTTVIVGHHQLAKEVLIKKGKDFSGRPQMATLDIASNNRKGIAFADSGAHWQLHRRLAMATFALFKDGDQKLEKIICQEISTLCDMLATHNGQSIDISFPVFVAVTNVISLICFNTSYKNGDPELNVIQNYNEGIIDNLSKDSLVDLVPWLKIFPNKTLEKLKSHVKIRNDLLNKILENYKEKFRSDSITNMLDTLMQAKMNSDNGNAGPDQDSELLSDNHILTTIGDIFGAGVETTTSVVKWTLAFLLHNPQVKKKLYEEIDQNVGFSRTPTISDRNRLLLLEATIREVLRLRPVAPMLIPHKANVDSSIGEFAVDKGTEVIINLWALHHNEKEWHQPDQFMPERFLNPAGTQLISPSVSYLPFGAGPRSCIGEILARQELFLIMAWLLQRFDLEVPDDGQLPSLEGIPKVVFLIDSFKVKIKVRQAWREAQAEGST

[2] = target: T2, Steroid 17-alpha-hydroxylase/17,20 lyase (Rattus norvegicus, UniProt P11715)
T2 sequence (P11715 whole entry): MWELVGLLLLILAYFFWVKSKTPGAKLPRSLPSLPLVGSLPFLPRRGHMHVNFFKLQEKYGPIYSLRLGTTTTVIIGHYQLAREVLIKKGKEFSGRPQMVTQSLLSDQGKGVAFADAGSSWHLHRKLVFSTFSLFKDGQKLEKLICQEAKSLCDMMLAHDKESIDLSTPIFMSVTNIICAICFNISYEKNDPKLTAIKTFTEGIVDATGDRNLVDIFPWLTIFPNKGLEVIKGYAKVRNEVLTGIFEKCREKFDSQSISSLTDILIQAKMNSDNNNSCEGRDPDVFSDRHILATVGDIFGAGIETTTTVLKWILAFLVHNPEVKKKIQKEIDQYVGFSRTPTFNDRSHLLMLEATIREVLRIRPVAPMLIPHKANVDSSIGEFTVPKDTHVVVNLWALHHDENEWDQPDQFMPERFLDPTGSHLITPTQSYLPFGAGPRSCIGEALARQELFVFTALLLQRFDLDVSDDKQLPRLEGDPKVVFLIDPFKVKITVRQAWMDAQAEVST

[3] = target: T1, Steroid 17-alpha-hydroxylase/17,20 lyase; remark: listed apart in the source
[4] = target: T2, Steroid 17-alpha-hydroxylase/17,20 lyase; remark: listed apart in the source
esterase = test: in vitro; conditions: rat, in vivo
Description: Hydrolysis rate by rat liver microsomal esterase

Structure (SMILES)	pIC50 [1]	pIC50 [2]	pIC50 [3]	pIC50 [4]	half-life (esterase) [min]
CC(C(=O)OC1CC2CC([C@@H]1C)C2(C)C)c1cccnc1 (stereo not given in full)	7.85		7.09		50
CCC(CC)(C(=O)OC1CC2CC([C@@H]1C)C2(C)C)c1ccncc1 (stereo not given in full)	7.46		6.85		
CC(C)(C(=O)OC12CC3CC(CC(C3)C1)C2)c1cccnc1	7.89		7.05		
C[C@@H]1CCC2C(C)(C)C3CC21CC[C@@]3(C)OC(=O)Cc1ccncc1 (stereo not given in full)	7.28		6.57		
O=C(Cc1cccnc1)OC12CC3CC(CC(C3)C1)C2	6.89		6.03		
C[C@@H]1CCC2C(C)(C)C3CC21CC[C@@]3(C)OC(=O)Cc1cccnc1 (stereo not given in full)	7.42		6.64		
CC(C)(C(=O)OC1(C)C2CC3CC(C2)CC1C3)c1cccnc1 (stereo not given)	7.89		7.12		
CCC(C(=O)OC1CC2CC([C@@H]1C)C2(C)C)c1ccncc1 (stereo not given in full)	8.05		7.47		88
C[C@@H]1C(OC(=O)C(C)(C)c2cccnc2)CC2CC1C2(C)C (stereo not given in full)	7.82	7.28	7.54	7.33	
C[C@@H]1CCC2C(C)(C)C3CC21CC[C@@]3(C)OC(=O)C(C)(C)c1cccnc1 (stereo not given in full)	6.17		5.40		

Second part, the compound after the results:

pIC50 [1]	pIC50 [2]	pIC50 [3]	pIC50 [4]	half-life (esterase) [min]	Structure (SMILES)
7.06	6.28	6.59	6.34	16	C[C@@H]1C(OC(=O)Cc2cccnc2)CC2CC1C2(C)C (stereo not given in full)
8.30	6.55	7.85	6.59	17.5	C[C@@H]1C(OC(=O)Cc2ccncc2)CC2CC1C2(C)C (stereo not given in full)
8.22		7.72		100	CC(C(=O)OC1CC2CC([C@@H]1C)C2(C)C)c1ccncc1 (stereo not given in full)
7.46		6.66			CC(C(=O)OC12CC3CC(CC(C3)C1)C2)c1cccnc1 (stereo not given)
< 6.00		< 6.00			C[C@@H]1C(OC(=O)Cc2ccccn2)CC2CC1C2(C)C (stereo not given in full)
8.00		7.59			C[C@@H]1C(OC(=O)C(C)(C)c2ccncc2)CC2CC1C2(C)C (stereo not given in full)
6.49		5.72			CC1(OC(=O)Cc2cccnc2)C2CC3CC(C2)CC1C3 (stereo not given)
